Assay results published in ChEMBL document CHEMBL1201862, “PubChem BioAssay data set” (2004).
Active and inactive are the calls of the source. No stated cut-off is given here; in the data, actives have a measured IC50 and inactives only a lower limit.

Each molecule was assayed against Envelope glycoprotein gp160 (Human immunodeficiency virus 1, UniProt Q6QLK5) (assay: cell-free HIV fusion peptide-binding blockers – biochemical, uHTS, fluorescence dequenching, […] (AID 1986)).
Sequence of Envelope glycoprotein gp160 (Q6QLK5 whole entry, the tested form may be a part): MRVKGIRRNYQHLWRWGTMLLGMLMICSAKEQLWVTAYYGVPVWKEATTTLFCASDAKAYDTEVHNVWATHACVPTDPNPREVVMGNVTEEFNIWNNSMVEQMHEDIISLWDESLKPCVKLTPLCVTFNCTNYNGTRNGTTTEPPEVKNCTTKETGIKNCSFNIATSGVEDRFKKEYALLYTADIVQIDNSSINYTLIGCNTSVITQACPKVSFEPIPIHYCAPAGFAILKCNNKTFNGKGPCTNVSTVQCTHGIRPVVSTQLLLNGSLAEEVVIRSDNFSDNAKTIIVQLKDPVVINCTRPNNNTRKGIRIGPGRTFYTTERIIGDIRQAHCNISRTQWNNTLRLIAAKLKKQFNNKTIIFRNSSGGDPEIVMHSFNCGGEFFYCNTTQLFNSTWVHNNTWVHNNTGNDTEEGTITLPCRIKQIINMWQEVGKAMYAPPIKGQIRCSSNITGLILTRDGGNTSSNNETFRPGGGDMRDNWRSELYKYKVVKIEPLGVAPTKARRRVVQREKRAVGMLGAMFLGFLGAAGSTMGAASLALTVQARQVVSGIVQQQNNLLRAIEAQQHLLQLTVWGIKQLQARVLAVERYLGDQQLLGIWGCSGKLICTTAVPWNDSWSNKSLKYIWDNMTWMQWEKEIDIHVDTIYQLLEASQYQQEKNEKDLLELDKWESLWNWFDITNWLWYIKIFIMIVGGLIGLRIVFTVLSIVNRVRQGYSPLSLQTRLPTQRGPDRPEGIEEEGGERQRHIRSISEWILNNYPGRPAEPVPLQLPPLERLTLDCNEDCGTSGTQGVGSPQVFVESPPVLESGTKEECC
For `O=C(O)C(c1ccccc1)N1C(=O)/C(=C\c2ccc(O)c(O)c2)SC1=S` (stereo unspecified), the IC50 was 13.2 µM (active).
With `Cc1ccc(Cl)cc1N1CCN(C(=O)Cc2c(C(=O)O)[nH]c3ccc(Cl)cc23)CC1` the IC50 was 24.5 µM (active).
For `O=C(COc1cccc2ccccc12)Nc1ccc(Cl)cc1C(=O)O`, the IC50 was 31.3 µM (active).
For `Cc1ccc(N2C(=O)/C(=C/c3ccc(CN(CCC#N)S(C)(=O)=O)o3)C(=O)NC2=S)cc1C`, the IC50 was 21.6 µM (active).
For `O=C(O)/C=C/C(=O)Nc1ccc(C2(c3ccc(NC(=O)/C=C/C(=O)O)cc3)c3ccccc3-c3ccccc32)cc1`, the IC50 was 15 µM (active).
For `COc1ccc2c(c1)cc(C(=O)N/N=C/c1c(O)c(C(=O)O)cc3ccccc13)n2C`, the IC50 was 7.59 µM (active).
